Molecular target: T1, hormone sensitive lipase (Homo sapiens, UniProt Q05469)
T1 sequence (Q05469 1-1076): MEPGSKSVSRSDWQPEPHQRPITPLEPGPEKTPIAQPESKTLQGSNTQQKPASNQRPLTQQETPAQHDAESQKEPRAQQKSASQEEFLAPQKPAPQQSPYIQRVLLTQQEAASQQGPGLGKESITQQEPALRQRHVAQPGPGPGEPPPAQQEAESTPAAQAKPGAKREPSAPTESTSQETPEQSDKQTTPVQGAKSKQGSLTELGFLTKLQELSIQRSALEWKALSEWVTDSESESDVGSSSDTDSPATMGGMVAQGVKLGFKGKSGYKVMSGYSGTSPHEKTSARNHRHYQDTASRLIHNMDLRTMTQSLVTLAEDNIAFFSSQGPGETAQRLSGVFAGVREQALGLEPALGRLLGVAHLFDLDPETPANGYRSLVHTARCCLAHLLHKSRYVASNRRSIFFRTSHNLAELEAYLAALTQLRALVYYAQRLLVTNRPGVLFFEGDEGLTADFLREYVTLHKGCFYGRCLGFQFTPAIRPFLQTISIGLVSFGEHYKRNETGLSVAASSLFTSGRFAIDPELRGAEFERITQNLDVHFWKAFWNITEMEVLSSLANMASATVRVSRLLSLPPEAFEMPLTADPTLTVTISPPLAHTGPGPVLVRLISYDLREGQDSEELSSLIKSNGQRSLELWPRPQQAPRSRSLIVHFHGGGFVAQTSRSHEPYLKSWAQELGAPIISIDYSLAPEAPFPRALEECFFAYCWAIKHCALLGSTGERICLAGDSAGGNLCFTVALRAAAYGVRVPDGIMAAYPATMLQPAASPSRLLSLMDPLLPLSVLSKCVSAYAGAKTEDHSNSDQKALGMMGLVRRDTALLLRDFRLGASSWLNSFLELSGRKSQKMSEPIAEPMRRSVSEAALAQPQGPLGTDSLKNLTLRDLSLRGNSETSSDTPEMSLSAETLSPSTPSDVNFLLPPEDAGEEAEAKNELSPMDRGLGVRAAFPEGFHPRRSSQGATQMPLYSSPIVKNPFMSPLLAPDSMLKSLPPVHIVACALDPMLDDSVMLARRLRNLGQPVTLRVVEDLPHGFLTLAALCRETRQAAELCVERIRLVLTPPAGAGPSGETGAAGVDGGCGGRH
Experiment: TEST 3190.1 HSL-FL: percent inhibition of hormone sensitive lipase at 10 μM, fluorochrome-labeled triacylglyceride emulsion
Type: biochemical
Settings: 10 μM sample concentration; percent activity relative to a non-inhibited sample; 30 min preincubation 25° C., 120 min at 37° C.
Protocol: 3190.1: Assay for determination of percent inhibition of hormone sensitive lipase by compound at 10 μM sample concentration.
A lipid emulsion with fluorochrome-labeled triacylglyceride and phospholipid is used as substrate with a standard concentration of highly purified HSL (12 μg/mL initial concentration corresponding to 600 ng/mL final concentration). BSA is added as product receptor. The transfer of the fluorochrome from the lipid phase to the water (BSA) phase changes the fluorescent properties of the fluorochrome. The changes can be monitored on a fluorimeter with an excitation wavelength of 450 nm and an emission wavelength of 545 nm.
Compound and HSL (2 μL compound, 10 μL enzyme and 70 μL PED-BSA buffer) is pre-incubated for 30 min at 25° C. before addition of substrate (100 μL). Amount of formed product is measured after 120 min incubation at 37° C.
Results are given as percent activity relative to a non-inhibited sample (no compound).

Row | Compound | activity at 10 µM [%]
1 | CC1(C)OB(c2ccc(Cl)s2)OC1(C)C [Example 1, 2-(5-Chlorothiophen-2-yl)-4,4,5,5-tetramethyl-[1,3,2]dioxaborolane] | 17
2 | CC1(C)COB(c2ccc(Cl)s2)OC1 [Example 2, 2-(5-Chlorothiophen-2-yl)-5,5-dimethyl-[1,3,2]dioxaborinane] | 17
3 | Clc1ccc(B2OCCNCCO2)s1 [Example 3, 2-(5-Chlorothiophen-2-yl)-[1,3,6,2]dioxazaborocane] | 19
4 | Fc1cc(F)cc(B2OCCNCCO2)c1 [Example 4, 2-(3,5-Difluorophenyl)-[1,3,6,2]dioxazaborocane] | 32
5 | Brc1cccc(B2OCCNCCO2)c1 [Example 5, 2-(3-Bromophenyl)-[1,3,6,2]dioxazaborocane] | 34
6 | Clc1cccc(B2OCCNCCO2)c1 [Example 6, 2-(3-Chlorophenyl)-[1,3,6,2]dioxazaborocane] | 36
7 | Fc1cccc(B2OCCNCCO2)c1 [Example 7, 2-(3-Fluorophenyl)-[1,3,6,2]dioxazaborocane] | 80
8 | FC(F)(F)c1cccc(B2OCCNCCO2)c1 [Example 8, 2-(3-Trifluoromethylphenyl)-[1,3,6,2]dioxazaborocane] | 29
9 | Fc1cc(B2OCCNCCO2)cc(F)c1F [Example 9, 2-(3,4,5-Trifluorophenyl)-[1,3,6,2]dioxazaborocane] | 32
10 | CC1(C)COB(c2cccc(Cl)c2)OC1 [Example 10, 2-(3-Chlorophenyl)-5,5-dimethyl-[1,3,2]dioxaborinane] | 39
11 | CC1(C)COB(c2cccc(C(F)(F)F)c2)OC1 [Example 11, 5,5-Dimethyl-2-(3-trifluoromethylphenyl)-[1,3,2]dioxaborinane] | 31
12 | COc1ccc(Cl)cc1B1OCCNCCO1 [Example 12, 2-(5-Chloro-2-methoxyphenyl)-[1,3,6,2]dioxazaborocane] | 39
13 | FC(F)(F)Oc1cccc(B2OCCNCCO2)c1 [Example 13, 2-(3-Trifluoromethoxyphenyl)-[1,3,6,2]dioxazaborocane] | 26
14 | Clc1cc(Cl)cc(B2OCCNCCO2)c1 [Example 14, 2-(3,5-Dichlorophenyl)-[1,3,6,2]dioxazaborocane] | 40
15 | Fc1ccc(B2OCCNCCO2)cc1Cl [Example 15, 2-(3-Chloro-4-fluorophenyl)-[1,3,6,2]dioxazaborocane] | 39
16 | Cc1csc(B2OCCNCCO2)c1 [Example 16, 2-(4-Methylthiophen-2-yl)-[1,3,6,2]dioxazaborocane] | 61
17 | CC1(C)COB(c2cccc(Br)c2)OC1 [Example 17, 2-(3-Bromophenyl)-5,5-dimethyl-[1,3,2]dioxaborinane] | 11
18 | COc1ccc(Cl)cc1B1OCC(C)(C)CO1 [Example 18, 2-(5-Chloro-2-methoxyphenyl)-5,5-dimethyl-[1,3,2]dioxaborinane] | 43

Row | Compound | activity at 10 µM [%]
19 | CC1(C)COB(c2cc(F)c(F)c(F)c2)OC1 [Example 19, 5,5-Dimethyl-2-(3,4,5-trifluorophenyl)-[1,3,2]dioxaborinane] | 49
20 | CC1(C)COB(c2cccc(OC(F)(F)F)c2)OC1 [Example 20, 5,5-Dimethyl-2-(3-trifluoromethoxyphenyl)-[1,3,2]dioxaborinane] | 27
21 | CC1(C)COB(c2cc(Cl)cc(Cl)c2)OC1 [Example 21, 2-(3,5-Dichlorophenyl)-5,5-dimethyl-[1,3,2]dioxaborinane] | 42
22 | CC1(C)COB(c2ccc(F)c(Cl)c2)OC1 [Example 22, 2-(3-Chloro-4-fluorophenyl)-5,5-dimethyl-[1,3,2]dioxaborinane] | 31
23 | CC1(C)COB(c2cccc(F)c2)OC1 [Example 23, 2-(3-Fluorophenyl)-5,5-dimethyl-[1,3,2]dioxaborinane] | 46
24 | Cc1csc(B2OCC(C)(C)CO2)c1 [Example 24, 5,5-Dimethyl-2-(4-methylthiophen-2-yl)-[1,3,2]dioxaborinane] | 58
25 | CC1(C)OB(c2cccc(Br)c2)OC1(C)C [Example 25, 2-(3-Bromophenyl)-4,4,5,5-tetramethyl-[1,3,2]dioxaborolane] | 28
26 | CC1(C)OB(c2cccc(OC(F)(F)F)c2)OC1(C)C [Example 27, 4,4,5,5-Tetramethyl-2-(3-trifluoromethoxyphenyl)-[1,3,2]dioxaborolane] | 29
27 | CC1(C)OB(c2cc(Cl)cc(Cl)c2)OC1(C)C [Example 28, 2-(3,5-Dichlorophenyl)-4,4,5,5-tetramethyl-[1,3,2]dioxaborolane] | 43
28 | CC1(C)OB(c2ccc(F)c(Cl)c2)OC1(C)C [Example 29, 2-(3-Chloro-4-fluorophenyl)-4,4,5,5-tetramethyl-[1,3,2]dioxaborolane] | 36
29 | CC1(C)OB(c2cccc(Cl)c2)OC1(C)C [Example 30, 2-(3-Chlorophenyl)-4,4,5,5-tetramethyl-[1,3,2]dioxaborolane] | 40
30 | CC1(C)OB(c2cccc(C(F)(F)F)c2)OC1(C)C [Example 31, 4,4,5,5-Tetramethyl-2-(3-trifluoromethylphenyl)-[1,3,2]dioxaborolane] | 27
31 | Cc1csc(B2OC(C)(C)C(C)(C)O2)c1 [Example 32, 4,4,5,5-Tetramethyl-2-(4-methylthiophen-2-yl)-[1,3,2]dioxaborolane] | 52
32 | OB(O)c1ccc(Cl)c(Cl)c1 [Example 74, 3,4-Dichlorophenylboronic acid] | 53
33 | OB(O)c1ccc2[nH]ccc2c1 [Example 75, 5-INDOLYL BORONIC ACID] | 100
34 | O=Cc1cccc(B(O)O)c1 [Example 76, 3-Formylphenylboronic acid] | 80
35 | CN(C)C(=O)c1ccc(B(O)O)cc1 [Example 77, 4-(N,N-DIMETHYLCARBAMOYL)PHENYLBORONIC ACID] | 98

From US7037905B2, “Pharmaceutical use of boronic acids and esters thereof” (Novo Nordisk A/S, priority 2002, dated 2006)
